The target of this experiment is T1, Cys12 of the KRAS 4B G12C protein (Homo sapiens, UniProt P01116, G12C).
T1 construct: This protein contained 188 amino acids in total, including an N-terminal 6-Histidine tag; made in house; host or cells: E. coli BL21
Kind of experiment: In vitro covalent adduct formation (CAF) assay, LC-MS intact mass. To be noted: 10 uM compound, 60 min. In kind it is binding. The gist of the method: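 Percent covalent modification from intact-mass LC-MS, by relative free versus adducted protein (adducts within 1 Da of expected mass). Reaction: 10 μM compound with 5 μM E. coli-expressed, GDP-exchanged KRAS 4B G12C in TBS pH 7.4, 4% DMSO, 1 h at 22° C.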
Turning to `C=CC(=O)N1CCN(c2nc(=O)n3c4c(c(-c5ccc(F)cc5F)c(C(F)(F)F)cc24)SC[C@@H]3CN2CCN(C3CC3)CC2)CC1` (atropisomer, axis not shown) [Example 1391, (3S,10S)-7-(4-acryloylpiperazin-1-yl)-3-((4-cyclopropylpiperazin-1-yl)methyl)-10-(2,4-difluorophenyl)-9-(trifluoromethyl)-2,3-dihydro-5H-[1,4]thiazino[2,3,4-ij]quinazolin-5-one], the “% CAF 10 uM @ 60 min” value amounted to 95.9%.

For `[2H]C([2H])=C([2H])C(=O)N1[C@H](C)CN(c2nc(=O)n3c4c(c(-c5cc(Cl)c(F)cc5F)c(C(F)(F)F)cc24)SC[C@@H]3COC)C[C@@H]1C` (atropisomer, axis not shown) [Example 1392, (3S,10S)-7-((3S,5R)-4-(acryloyl-d3)-3,5-dimethylpiperazin-1-yl)-10-(5-chloro-2,4-difluorophenyl)-3-(methoxymethyl)-9-(trifluoromethyl)-2,3-dihydro-5H-[1,4]thiazino[2,3,4-ij]quinazolin-5-one], the “% CAF 10 uM @ 60 min” value worked out at 64.9%. Under `C=CC(=O)N1CCN(c2nc(=O)n3c4c(c(-c5ccc(F)c6cnn(C)c56)c(C(F)(F)F)cc24)SC[C@@H]3COC)CC1` (atropisomer, axis not shown) [Example 1392a, (3S,10S)-7-(4-acryloylpiperazin-1-yl)-10-(4-fluoro-1-methyl-1H-indazol-7-yl)-3-(methoxymethyl)-9-(trifluoromethyl)-2,3-dihydro-5H-[1,4]thiazino[2,3,4-ij]quinazolin-5-one] stands 97.2%. `[2H]C([2H])=C([2H])C(=O)N1[C@H](C)CN(c2nc(=O)n3c4c(c(-c5cc(Cl)c(F)cc5F)c(C(F)(F)F)cc24)SC[C@@H]3COC)C[C@@H]1C` (atropisomer, axis not shown) [Example 1393, (3S,10R)-7-((3S,5R)-4-(acryloyl-d3)-3,5-dimethylpiperazin-1-yl)-10-(5-chloro-2,4-difluorophenyl)-3-(methoxymethyl)-9-(trifluoromethyl)-2,3-dihydro-5H-[1,4]thiazino[2,3,4-ij]quinazolin-5-one]: the “% CAF 10 uM @ 60 min” value was determined as 95.4%. Under `C=CC(=O)N1CCN(c2nc(=O)n3c4c(c(-c5cc(Cl)c(F)cc5F)c(C(F)(F)F)cc24)SCC2(COC2)C3)CC1` (atropisomer, axis not shown) [Example 1396, (R)-8′-(4-acryloylpiperazin-1-yl)-11′-(5-chloro-2,4-difluorophenyl)-10′-(trifluoromethyl)-2′H,4′H,6′H-spiro[oxetane-3,3′-[1,4]thiazepino[2,3-4-ij]quinazolin-6′-one] stands 95.1%; under `C=CC(=O)N1CCN(c2nc(=O)n3c4c(c(-c5cc(Cl)c(F)cc5F)c(C(F)(F)F)cc24)SCC2(COC2)C3)CC1` (atropisomer, axis not shown) [Example 1397, (S)-8′-(4-acryloylpiperazin-1-yl)-11′-(5-chloro-2,4-difluorophenyl)-10′-(trifluoromethyl)-2′H,4′H,6′H-spiro[oxetane-3,3′-[1,4]thiazepino[2,3,4-ij]quinazolin]-6′-one], 78.2%.

Take `[2H]C([2H])=C([2H])C(=O)N1[C@H](C)CN(c2nc(=O)n3c4c(c(-c5ccc(F)cc5F)c(C(F)(F)F)cc24)SC[C@@H]3COC)C[C@@H]1C` (atropisomer, axis not shown) [Example 1404, (3S,10S)-7-((3S,5R)-4-(acryloyl-d3)-3,5-dimethylpiperazin-1-yl)-10-(2,4-difluorophenyl)-3-(methoxymethyl)-9-(trifluoromethyl)-2,3-dihydro-5H-[1,4]thiazino[2,3,4-ij]quinazolin-5-one]: the “% CAF 10 uM @ 60 min” value worked out at 80.9%. Consider `[2H]C([2H])=C([2H])C(=O)N1[C@H](C)CN(c2nc(=O)n3c4c(c(-c5ccc(F)cc5F)c(C(F)(F)F)cc24)SC[C@@H]3COC)C[C@@H]1C` (atropisomer, axis not shown) [Example 1405, (3S,10R)-7-((3S,5R)-4-(acryloyl-d3)-3,5-dimethylpiperazin-1-yl)-10-(2,4-difluorophenyl)-3-(methoxymethyl)-9-(trifluoromethyl)-2,3-dihydro-5H-[1,4]thiazino[2,3,4-ij]quinazolin-5-one], for which the “% CAF 10 uM @ 60 min” value worked out at 88.6%. With `C=CC(=O)N1[C@H](C)CN(c2nc(=O)n3c4c(c(-c5c(F)ccc6cnn(C)c56)c(C(F)(F)F)cc24)SC[C@@H]3COC)C[C@@H]1C` (atropisomer, axis not shown) [Example 1406, (3S,10R)-7-((3S,5R)-4-acryloyl-3,5-dimethylpiperazin-1-yl)-10-(6-fluoro-1-methyl-1H-indazol-7-yl)-3-(methoxymethyl)-9-(trifluoromethyl)-2,3-dihydro-5H-[1,4]thiazino[2,3,4-ij]quinazolin-5-one], the “% CAF 10 uM @ 60 min” value came out at 75.9%.

Turning to `C=CC(=O)N1[C@H](C)CN(c2nc(=O)n3c4c(c(-c5cccc6cnn(C)c56)c(C(F)(F)F)cc24)SC[C@@H]3CN2CCN(C3CC3)CC2)C[C@@H]1C` (atropisomer, axis not shown) [Example 1411, (3S,10R)-7-((3S,5R)-4-acryloyl-3,5-dimethylpiperazin-1-yl)-3-((4-cyclopropylpiperazin-1-yl)methyl)-10-(1-methyl-1H-indazol-7-yl)-9-(trifluoromethyl)-2,3-dihydro-5H-[1,4]thiazino[2,3,4-ij]quinazolin-5-one], the “% CAF 10 uM @ 60 min” value is listed as 0%. In the case of `C=CC(=O)N1[C@H](C)CN(c2nc(=O)n3c4c(c(-c5cccc6cnn(C)c56)c(C(F)(F)F)cc24)SC[C@@H]3CN2CCN(C3CC3)CC2)C[C@@H]1C` (atropisomer, axis not shown) [Example 1412, (3S,10S)-7-((3S,5R)-4-acryloyl-3,5-dimethylpiperazin-1-yl)-3-((4-cyclopropylpiperazin-1-yl)methyl)-10-(1-methyl-1H-indazol-7-yl)-9-(trifluoromethyl)-2,3-dihydro-5H-[1,4]thiazino[2,3,4-ij]quinazolin-5-one], the “% CAF 10 uM @ 60 min” value was 85.4%. As to `C=CC(=O)N1CCN(c2nc(=O)n3c4c(c(-c5c(F)ccc6cnn(C)c56)c(C(F)(F)F)cc24)SC[C@@H]3COC)CC1` (atropisomer, axis not shown) [Example 1416, (3S,10R)-7-(4-acryloylpiperazin-1-yl)-10-(6-fluoro-1-methyl-1H-indazol-7-yl)-3-(methoxymethyl)-9-(trifluoromethyl)-2,3-dihydro-5H-[1,4]thiazino[2,3,4-ij]quinazolin-5-one], the “% CAF 10 uM @ 60 min” value is 71.3%.

Turning to `C=CC(=O)N1[C@H](C)CN(c2nc(=O)n3c4c(c(-c5cc(Cl)c(F)cc5F)c(C(F)(F)F)cc24)SCC(COC)(COC)C3)C[C@@H]1C` (atropisomer, axis not shown) [Example 1420, (S)-8-((3S,5R)-4-acryloyl-3,5-dimethylpiperazin-1yl)-11-(5-chloro-2,4-difluorophenyl)-3,3-bis(methoxymethyl)-10-(trifluoromethyl)-3,4-dihydro-2H,6H-[1,4]thiazepino[2,3,4-ij]quinazolin-6-one], the “% CAF 10 uM @ 60 min” value came out at 93%.

As to `C=CC(=O)N1[C@H](C)CN(c2nc(=O)n3c4c(c(-c5cc(Cl)c(F)cc5F)c(C(F)(F)F)cc24)SCC(COC)(COC)C3)C[C@@H]1C` (atropisomer, axis not shown) [Example 1421, (R)-8-((3S,5R)-4-acryloyl-3,5-dimethylpiperazin-1-yl)-11-(5-chloro-2,4-difluorophenyl)-3,3-bis(methoxymethyl)-10-(trifluoromethyl)-3,4-dihydro-2H,6H-[1,4]thiazepino[2,3,4-ij]quinazolin-6-one], the “% CAF 10 uM @ 60 min” value is recorded as 91%.

For `[2H]C([2H])([2H])OC[C@H]1CSc2c(-c3ccc(F)cc3F)c(C(F)(F)F)cc3c(N4C[C@@H](C)N(C(=O)C=C)[C@@H](C)C4)nc(=O)n1c23` (atropisomer, axis not shown) [Example 1423, (3S,10R)-7-((3S,5R)-4-acryloyl-3,5-dimethylpiperazin-1-yl)-10-(2,4-difluorophenyl)-3-((methoxy-d3)methyl)-9-(trifluoromethyl)-2,3-dihydro-5H-[1,4]thiazino[2,3,4-ij]quinazolin-5-one], the “% CAF 10 uM @ 60 min” value is 95.1%.

In the case of `[2H]C([2H])([2H])OC[C@H]1CSc2c(-c3ccc(F)cc3F)c(C(F)(F)F)cc3c(N4C[C@@H](C)N(C(=O)C=C)[C@@H](C)C4)nc(=O)n1c23` (atropisomer, axis not shown) [Example 1424, (3S,10S)-7-((3S,5R)-4-acryloyl-3,5-dimethylpiperazin-1-yl)-10-(2,4-difluorophenyl)-3-((methoxy-d3)methyl)-9-(trifluoromethyl)-2,3-dihydro-5H-[1,4]thiazino[2,3,4-ij]quinazolin-5-one], the “% CAF 10 uM @ 60 min” value is recorded as 95.4%.

Consider `C=CC(=O)N1[C@H](C)CN(c2nc(=O)n3c4c(c(-c5ccc(F)cc5F)c(C(F)(F)F)cc24)SC[C@@H]3CN2CC[C@H](F)C2)C[C@@H]1C` (atropisomer, axis not shown) [Example 1428, (3S,10S)-7-((3S,5R)-4-acryloyl-3,5-dimethylpiperazin-1-yl)-10-(2,4-difluorophenyl)-3-(((S)-3-fluoropyrrolidin-1-yl)methyl)-9-(trifluoromethyl)-2,3-dihydro-5H-[1,4]thiazino[2,3,4-ij]quinazolin-5-one], for which the “% CAF 10 uM @ 60 min” value is listed as 72%. As to `C=CC(=O)N1[C@H](C)CN(c2nc(=O)n3c4c(c(-c5ccc(F)cc5F)c(C(F)(F)F)cc24)SC[C@@H]3CN2CC[C@H](F)C2)C[C@@H]1C` (atropisomer, axis not shown) [Example 1429, (3S,10R)-7-((3S,5R)-4-acryloyl-3,5-dimethylpiperazin-1-yl)-10-(2,4-difluorophenyl)-3-(((S)-3-fluoropyrrolidin-1-yl)methyl)-9-(trifluoromethyl)-2,3-dihydro-5H-[1,4]thiazino[2,3,4-ij]quinazolin-5-one], the “% CAF 10 uM @ 60 min” value came to 79%.

Values taken from patent publication US20230107642A1 (Erasca, Inc., priority 2020, published 2023).
